Experimental data as given in patent US20250059153A1, “BICYCLIC QUINONES, PHARMACEUTICAL COMPOSITIONS, AND THERAPEUTIC APPLICATIONS” (priority 2022, published 2025).

Tested on: Trypanosoma cruzi trypomastigote
Test: Antiparasitic activity against Trypanosoma cruzi trypomastigote (viability by mobility under optical microscope)
Assay type: cell-based
Conditions: LLC-MK2, trypomastigotes from infected LLCMK2 cells, 1×10^7 parasites/mL, 24 h at 37° C.
Experimental: Antiparasitic Activity Against Trypanosoma cruzi
To evaluate antiparasitic activity against Trypanosoma cruzi trypomastigote, parasites were obtained from the supernatant of infected LLCMK2 cells. Trypomastigote (1×10^7 parasites/mL) was resuspended in DMEM supplemented with 10% FBS. The parasites were incubated in the presence of a compound at 500, 200, 100, 50, 10, 5, 1, 0.5, and 0.25 μM in 96-well plates for 24 h at 37° C. with 5% CO2. After incubation, the viability of the parasites was determined by examining mobility under an optical microscope. See, e.g., Brener, Rev. Inst. Med. Trop. São Paulo. 1962, 4, 389-96.

- EC50: 2300 ± 300 nM
SMILES: Cc1cc(=O)c2occoc=2c1=O [Compound A1, 6-methylbenzo[b][1,4]dioxine-5,8-dione]
